Experimental findings from US5962487A, “Antipicornaviral compounds and methods for their use and preparation” (Agouron Pharmaceuticals, Inc., priority 1997, dated 1999) are described below.

Where only a bound is given, the exact number is not on record here.

The target in series [1] is T1, Rhinovirus 3C protease (RVP) serotype-14 (Human rhinovirus 14, UniProt P03303).
T1 construct: Recombinant Rhinovirus 3C proteases from serotypes 14, 16, 2 or 89 were prepared; made in house
Kind of series: Inhibition of Rhinovirus Protease, serotype 14 (FRET assay). Format: biochemical. The note with it: for kinact/KI: read-out: kobs/I; for Ki: RVP serotype-14, 10 minute preincubation with 50 nM RVP prior to addition of substrate, read-out: INHIB (Ki). As for the experimental part: Stock solutions (50 mM, in DMSO) of various compounds were prepared; dilutions were in the same solvent. Recombinant Rhinovirus 3C proteases from serotypes 14, 16, 2 or 89 were prepared by the following standard chromatographic procedures: (1) ion exchange using Q Sepharose Fast Flow from Pharmacia; (2) affinity chromatography using Affi-Gel Blue from Biorad; and (3) sizing using Sephadex G-100 from Pharmacia. Assays contained 2% DMSO, 50 mM tris pH 7.6, 1 mM EDTA, a compound at the indicated concentrations, approximately 1 μM substrate, and 50-100 nM protease. For Ki determinations, the compound and the enzyme were preincubated for 10 minutes at 30° C. prior to addition of the substrate (substrate start). The kobs/I values were obtained from reactions initiated by addition of enzyme rather than substrate. RVP activity is measured in the fluorescence resonance energy transfer assay. The substrate was (N-terminal) DABCYL-(Gly-Arg-Ala-Val-Phe-Gln-Gly-Pro-Val-Gly)-EDANS. In the uncleaved peptide, the EDANS fluorescence was quenched by the proximal DABCYL moiety. When the peptide was cleaved, the quenching was relieved, and activity was measured as an increase in fluorescence signal.
In the above table, all data is for RVP serotype-14 unless otherwise noted in parentheses. All strains of human rhinovirus (HRV) were purchased from American Type Culture Collection (ATCC), except for serotype 14, which was produced from the infectious cDNA clone constructed and supplied to us by Dr. Roland Rueckert at the Institute for Molecular Virology, University of Wisconsin, Madison, Wis. The column designated INHIB represents the percent inhibition, with the concentration of the compound in μM indicated in parentheses, unless Ki was assigned as designated by (Ki), at 10 minute preincubation with 50 nM RVP prior to addition of substrate was used. The data in the column designated kobs/I was measured from progress curves in enzyme start experiments.

Another series can be described thus: in vitro. The conditions noted are these: human, hi-hela cells. Type of series: cell-based. As for the experimental part:
(§1) HI-HeLa cells were infected with HRV-14 (unless otherwise noted) at a multiplicity of infection (m.o.i.) of 0.13 (virus particles/cell) or mock-infected with medium only. Infected or mock-infected cells were resuspended at 8×10^5 cells per mL and incubated with appropriate concentrations of compounds of formulas I and II. Two days later, XTT/PMS was added to test plates, and the amount of formazan produced was quantified spectrophotometrically at 450/650 nm. The EC50 was calculated as the concentration of compound that increased the percentage of formazan production in compound-treated, virus-infected cells to 50% of that produced by compound-free mock-infected cells. The 50% cytotoxic dose (CC50) was calculated as the concentration of compound that decreased the percentage of formazan produced in compound-treated, mock-infected cells to 50% of that produced in compound-free, mock-infected cells. The therapeutic index (TI) was calculated by dividing the CC50 by the EC50.
(§2) All strains of human rhinovims (HRV) for use in this assay were purchased from American Type Culture Collection (ATCC), except for HRV serotype-14, which was produced from the infectious cDNA clone, constructed and supplied to us by Dr. Roland Rueckert at the Institute for Molecular Virology, University of Wisconsin, Madison, Wis. HRV stocks were propagated, and antiviral assays were performed in HI-HeLa (ATCC). Cells were grown in Minimal Essential Medium, available from Life Technologies, with 10% fetal bovine serum.

The next series deals with HRV-14. The series is described as follows: Antirhinoviral HI-HeLa Cell Culture Assay (cell protection, XTT), HRV-14. The conditions noted are these: for TI: CC50/EC50, HRV serotype-14, 2880 min; for EC50: Rhinovirus B, HRV14, 48 h, HRV serotype-14 infected HI-HeLa cells, XTT, two days. Format: cell-based, human rhinovirus. On the procedure:
In the Cell Protection Assay, the ability of compounds to protect cells against HRV infection was measured by the XTT dye reduction method. This method is described in O. S. Weislow, R. Kiser, D. L. Fine, J. Bader, R. H. Shoemaker, and M. R. Boyd, J. Natl. Cancer Inst. 1989, 81, 577-586, which document is entirely incorporated herein by reference.
as §1, §2
The compounds were tested against control compounds WIN 51711, WIN 52084, and WIN 54954, all obtained from Sterling-Winthrop Pharmaceuticals, and control compound Pirodavir, obtained from Janssen Pharmaceuticals. Antiviral data obtained for the test compounds are shown in Table 2 where all data are for HRV serotype-14 unless otherwise noted in parentheses.
For orientation: Tetrazolium assays rely on reduction of a dye to a coloured formazan, in cell work by metabolically active cells.

T1 sequence (P03303 1538-1719): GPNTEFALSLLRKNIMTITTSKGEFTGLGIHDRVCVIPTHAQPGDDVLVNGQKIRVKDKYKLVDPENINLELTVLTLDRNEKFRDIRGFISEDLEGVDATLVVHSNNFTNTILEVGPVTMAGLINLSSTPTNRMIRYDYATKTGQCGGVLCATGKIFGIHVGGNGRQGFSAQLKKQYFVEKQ

The CC50 is the concentration at which the toxic effect on the cells reaches its halfway point. A low value points to greater toxicity to the cells. For orientation: EC50 means the midpoint of the concentration-response curve. In the case of `CCOC(=O)/C=C/C(CCC(N)=O)NC(=O)[C@@H]1CCc2ncc(N(C(=O)SC3CCCC3)C(=O)SC3CCCC3)c(=O)n21` (some centres unmarked) [Compound 50], the kinact/KI in series [1] was 14000 M⁻¹ s⁻¹. Also, the CC50 at 48 h in “in vitro” is > 100 µM. For the same compound, in the series on HRV-14, the TI is recorded as > 31 and the EC50 was 3.2 µM.

In general, Ki refers to the dissociation constant of the complex between target and ligand, obtained from inhibition or displacement. Turning to `CN(C(=O)[C@H](CCc1ccccc1)NC(=O)SCc1ccccc1)[C@@H](Cc1ccccc1)C(=O)N[C@H](/C=C1\CCOC1=O)CCC(N)=O` [Compound 10, 2-(Bezylthiocarbonyl-L-hPhe-L-N-Me-Phe-L-Gln)-E-(α-Vinyl-γ-Butyrolactone)], in series [1], the Ki was 2 µM and the kinact/KI turned out to be 41800 M⁻¹ s⁻¹. In addition, half-maximal cytotoxicity in “in vitro” (CC50 at 48 h) was put at 56.2 µM. In the series on HRV-14, this compound showed a TI of 31 and an EC50 of 1.8 µM.

For the compound `CCOC(=O)/C=C/[C@H](CCC(N)=O)NC(=O)C1CN(S(=O)(=O)c2ccccc2)CCN1C(=O)[C@H](CC(C)C)NC(=O)OCc1ccccc1` (mixture of isomers) [Compound 29, Ethyl-3-[CBZ-L-Leu-DL-(4-Phenylsulfonyl)-Pipz-L-Gln]-E-Propenoate], the kinact/KI in series [1] was determined as 45 M⁻¹ s⁻¹. In “in vitro”, this compound displayed a CC50 at 48 h of 251 µM. Also, in the series with HRV-14, the TI is listed as 5 and the EC50 stood at 46 µM.

In the case of `CCOC(=O)/C=C/[C@H](CCC(N)=O)NC(=O)[C@H](Cc1ccc(C)cc1)N(C)C(=O)[C@@H](NC(=O)SC1CCCC1)C(C)(C)C` [Compound 48], the kinact/KI in series [1] amounted to 14000 M⁻¹ s⁻¹. Also, the CC50 at 48 h in “in vitro” is > 10 µM. Also, in the series with HRV-14, the TI is given as > 20 and the EC50 turned out to be 0.5 µM.

With `CCSC(=O)N[C@H](C(=O)N(C)[C@@H](Cc1ccccc1)C(=O)N[C@H](/C=C1\CCOC1=O)CCC(N)=O)C(C)C` [Compound 12, 2-(Ethylthiocarbonyl-L-Val-L-N-Me-Phe-L-Gln)-E-(α-Vinyl-γ-Butyrolactone)], the kinact/KI in series [1] stood at 5070 M⁻¹ s⁻¹. Further, the CC50 at 48 h in the series “in vitro” is > 320 µM. For the same compound, in the series with HRV-14, the TI is > 76 and the midpoint of the response, the EC50, lay at 4.2 µM.

Consider `CCOC(=O)/C=C/[C@H](CCC(N)=O)NC(=O)[C@@H]1[C@@H](C)CCN1C(=O)[C@H](CC(C)C)NC(=O)OCc1ccccc1` [Compound 21, Ethyl-3-[CBZ-L-Leu-L-(3S-Methyl)-Pro-L-Gln]-E-Propenoate], for which, in series [1], the Ki was determined as 50 µM and the kinact/KI stood at 256 M⁻¹ s⁻¹. The CC50 at 48 h in the series “in vitro” is > 320 µM. For the same compound, in the series on HRV-14, the TI is on record as > 15 and the response was half-maximal at 22 µM (EC50).

For `CCOC(=O)/C(C)=C/[C@H](CCC(N)=O)NC(=O)[C@H](Cc1ccccc1)N(C)C(=O)[C@H](CSc1ccccc1)NC(=O)SC1CCCC1` [Compound 47], the kinact/KI in series [1] was determined as 6500 M⁻¹ s⁻¹. Besides, the CC50 at 48 h in the series “in vitro” is 18 µM. In the series on HRV-14, this compound had a TI of 14 and an EC50 of 1.3 µM.

As to `CCOC(=O)/C=C/C(CCC(N)=O)NC(=O)[C@@H]1CCc2ncc(NC(=O)SCC)c(=O)n21` (some centres unmarked) [Compound 52], the kinact/KI in series [1] was 31100 M⁻¹ s⁻¹. The CC50 at 48 h in “in vitro” was > 100 µM. In the series on HRV-14, the TI is on record as > 3 and the half-maximal effective concentration (EC50) was 32 µM.

Consider `CCOC(=O)/C=C/[C@H](CCC(N)=O)NC(=O)[C@@H]1CCCN1C(=O)[C@H](CC(C)C)NC(=O)OCc1ccccc1` [Compound 19, Ethyl-3-(CBZ-L-Leu-L-Pro-L-Gln)-E-Propenoate], for which the kinact/KI in series [1] came out at 1930 M⁻¹ s⁻¹. For the same compound, the CC50 at 48 h in the series “in vitro” was > 320 µM. Further, in the series on HRV-14, the TI is listed as > 6 and the EC50 was found to be 50 µM.

Consider `Cc1cc(CCCCCCCOc2ccc(C3=NCCO3)cc2)on1` [WIN 51711, reference compound], for which, in “in vitro”, the CC50 at 48 h was > 60 µM. Further, in the series with HRV-14, the TI is listed as > 77 and the midpoint of the response, the EC50, lay at 0.78 µM.

For `Cc1cc(CCCCCCCOc2ccc(C3=N[C@@H](C)CO3)cc2)on1` [WIN 52084, reference compound], in the series “in vitro”, the CC50 at 48 h was > 10 µM. For the same compound, in the series with HRV-14, the TI was > 143 and it took 0.07 µM to reach a half-maximal effect (EC50).
